Patent US20050020567A1, “Method of treating bacterial infections using gemifloxacin or a salt thereof and a carbapenem antibacterial agent” (priority 2002, published 2005)
Read-outs that look alike come from different tables or passages of the source. Blank lines part the entries; values can stand above or below the compound they belong to.

Experiments:
Type in all cases: cell-based, Pseudomonas aeruginosa
[1] = system: P. aeruginosa 6168; test: checkerboard titration, gemifloxacin and imipenem (MIC, FIC); conditions: for MIC: Pseudomonas aeruginosa, alone
Protocol: (§1) The combined effect of gemifloxacin and imipenem was investigated in P. aeruginosa by using a checkerboard titration method. The test organisms used in this study were all clinical isolates collected in Korea. The isolates were maintained frozen at −70° C. prior to testing.
(§2) Gemifloxacin was tested at 12 concentrations (0.016-32 μg/ml) and imipenem was tested at 11 concentrations (0.016-16 μg/ml). Gemifloxacin was dispensed alone in the first row and combined with imipenem in the remaining rows. Imipenem solution was also dispensed alone in the first row in the first column. Test strains were grown for 18 h in Mueller-Hinton Broth, and then these overnight cultures were diluted with the same fresh medium to the density of approximately 10^7 CFU/mL. The bacterial concentrations were determined by measuring optical density or turbidity of the suspension and were verified by standard colony counts on antibiotic-free agar plates. A diluted bacterial solution was applied to plates containing serially diluted antimicrobial agents to yield 5×10^5 CFU/mL. Plates were incubated at 35° C. for 18 hours.
(§3) Minimal inhibitory concentrations (MICs) for each separate drug were determined. For wells along the growth-no growth interface, synergy was determined by calculating the Fractional Inhibitory Concentration (FIC) index. The Fractional Inhibitory Concentration (FIC) indices were calculated using the following formula: FIC index=FICA+FICB=[A]/MICA+[B]/MICB Wherein: • FICA(or B), is the FIC of drug A (or B) • MICA (or B) is the MIC of the organism to drug A (or B) • A (or B) is concentration of drug A (or B) that is the lowest inhibitory concentration
(§4) The FIC indices were interpreted using the following criteria: • ≦0.5=Synergy; • >0.5-1.0=Additive; • >1.0-4.0=Indifference; • >4.0=Antagonism

[2] = system: P. aeruginosa PA018R; test: as above; conditions: for MIC: Pseudomonas aeruginosa, alone
Protocol: as §1, §2, §3, §4

[3] = system: P. aeruginosa 6140; test: as above; conditions: for MIC: Pseudomonas aeruginosa, alone
Protocol: as §1, §2, §3, §4

[4] = system: P. aeruginosa ATCC 27853; test: checkerboard titration, gemifloxacin and meropenem (MIC, FIC); conditions: for MIC: Pseudomonas aeruginosa
Protocol: Evaluation for synergistic activity was carried out by calculation of fractional inhibitory concentrations (FICs) according to the method of Eliopoulos et al (1996, Antimicrobial Combinations, Antibiotics in Laboratory Medicine, Victor Lorian, 4th Edition, pp 337-338, Baltimore, Md., Williams and Wilkins).
P. aeruginosa ATCC 27853 was obtained from the SmithKline Beecham Anti-Infectives Research Culture Collection and stored at −80° C. in 10% glycerol. Before testing, the isolate was passaged onto agar plates (trypticase soy agar containing 5% sheeps blood) from the frozen stock for two consecutive days. Cation adjusted Mueller Hinton broth (BBL, Cockeyville, Md.) was used for the isolate.
Checkerboard microtitre broth dilution plates were prepared using the Hamilton MicroLab AT Plus system (Reno, Nev.). Two-fold serial dilutions (50 μl) of meropenem were made in columns 1 through 11 of a microtitre plate. Two-fold serial dilutions of gemifloxicin were prepared manually and the MicroLab AT Plus was used to dispense 25 μl of gemifloxacin at each concentration into rows A through G of the microtitre plate. The concentration range tested varied for each drug/organism combination to encompass the MIC endpoints of the individual components. Column 12 contained two fold serial dilutions of gemifloxacin only, and row H contained two fold serial dilutions of meropenem only. The last well (H) in column 12 was used as a positive growth control well, containing only medium and test isolate.
The bacteria were diluted to a 0.5 McFarland standard and then further diluted 1/50. Each well was inoculated with 25 μl of the isolate to give a final inoculum density of approximately 5×10^5 cfu/ml. The MicroLab AT Plus 2 was used to add the inoculum to the microtitre plates. After inoculation, the plates were covered with a 96 well microtitre plate lid and incubated at 35° C. in ambient air for 20-24 hours. A 10 μl aliquot of the inoculum was plated on trypticase soy agar containing 5% sheep blood to determine the purity of the final test inoculum.
Following incubation, a microtitre mirror reader (Cooke Instruments Ltd., England) was used to assist in determining the microdilution MIC endpoints. The MIC was determined as the lowest concentration of compound that inhibited visible growth of the organism.
The Fractional Inhibitory Concentrations (FICs) were calculated using the following formula: (A)/(MIC A)+(B)/(MIC B)=FIC A+FIC B=FIC Index wherein: • A is the MIC of drug A in the presence of drug B • B is the MIC of drug B in the presence of drug A • MIC A is the MIC of the organism to drug A alone • MIC B is the MIC of the organism to drug B alone • FIC A is the fractional inhibitory concentration of drug A • FIC B is the fractional inhibitory concentration of drug B

[5] = gemifloxacin in combination with imipenem
[6] = imipenem in combination with gemifloxacin

MIC ([1]; read-out: gemifloxacin MIC): 0.5 µg/mL | Cgemifloxacin MIC [1, 5]: 0.0625 µg/mL | MIC ([2]; read-out: gemifloxacin MIC): 4 µg/mL | Cgemifloxacin MIC [2, 5]: 1 µg/mL | MIC ([3]; read-out: gemifloxacin MIC): 8 µg/mL | Cgemifloxacin MIC [3, 5]: 2 µg/mL | MIC ([4]; ATCC27853, in the presence of meropenem 0.125 μg/ml, read-out: gemifloxacin MIC): 0.125 µg/mL | gemifloxacin MIC ([4]; gemifloxacin alone): 0.5 µg/mL
SMILES: CO/N=C1\CN(c2nc3c(cc2F)c(=O)c(C(=O)O)cn3C2CC2)CC1CN (racemic) [gemifloxacin, (R,S)-7-(3-aminomethyl-4-methoxyiminopyrrolidin-1-yl)-1-cyclopropyl-6-fluoro-4-oxo-1,4-dihydro-1,8-naphthyridine-3-carboxylic acid]
FICA ([1]; FIC of gemifloxacin): 0.13 | FICA ([2]; FIC of gemifloxacin): 0.25 | FICA ([3]; FIC of gemifloxacin): 0.25

MIC ([4]; ATCC27853, in the presence of gemifloxacin 0.125 μg/ml, read-out: meropenem MIC): 0.125 µg/mL | meropenem MIC ([4]; meropenem alone): 0.5 µg/mL
SMILES: C[C@@H](O)[C@H]1C(=O)N2C(C(=O)O)=C(S[C@@H]3CN[C@H](C(=O)N(C)C)C3)[C@H](C)[C@H]12 [meropenem]

MIC ([1]; read-out: imipenem MIC): 1 µg/mL | Cimipenem MIC [1, 6]: 0.25 µg/mL | MIC ([2]; read-out: imipenem MIC): 16 µg/mL | Cimipenem MIC [2, 6]: 1 µg/mL | MIC ([3]; read-out: imipenem MIC): 4 µg/mL | Cimipenem MIC [3, 6]: 1 µg/mL
SMILES: C[C@@H](O)[C@H]1C(=O)N2C(C(=O)O)=C(SCCN=CN)C[C@H]12 [imipenem]
FICB ([1]; FIC of imipenem): 0.25 | FICB ([2]; FIC of imipenem): 0.06 | FICB ([3]; FIC of imipenem): 0.25
